Columns and labels:
[1] = target: T1, human prostanoid EP3 receptor (Homo sapiens, UniProt P43115); assay: FLIPR Ca2+ signaling PG antagonist assay, EP3 stable cell line; type: cell-based; conditions: HEK-293 EBNA cells, human recombinant EP3 with chimeric Gqi; standard agonist PGE2
T1 construct: expressed in transfected cells
T1 sequence (P43115 1-390): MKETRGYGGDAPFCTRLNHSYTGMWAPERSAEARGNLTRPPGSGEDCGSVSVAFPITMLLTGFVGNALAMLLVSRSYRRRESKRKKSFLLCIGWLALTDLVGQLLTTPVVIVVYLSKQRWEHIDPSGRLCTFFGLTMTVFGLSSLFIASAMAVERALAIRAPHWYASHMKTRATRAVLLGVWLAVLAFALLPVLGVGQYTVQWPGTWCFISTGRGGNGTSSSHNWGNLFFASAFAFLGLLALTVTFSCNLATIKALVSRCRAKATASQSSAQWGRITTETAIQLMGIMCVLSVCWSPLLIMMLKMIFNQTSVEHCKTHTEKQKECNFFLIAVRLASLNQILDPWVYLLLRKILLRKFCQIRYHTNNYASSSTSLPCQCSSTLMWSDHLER
Method: The above compounds were tested for PG antagonist activity as follows using human recombinant prostanoid receptor (DP1, EP1-4, FP, IP and TP) stable cell lines: In order to measure the response of Gs and Gi coupled prostanoid receptors as a Ca^2+ signal, chimeric G protein cDNAs were used. Stable cell lines over-expressing human prostanoid DP1, EP1-4, FP, IP, and TP receptors were established as follows:
Briefly, human prostanoid DP1, EP2, and EP4 receptor cDNAs were co-transfected with chimeric Gqs cDNA containing a haemagglutanin (HA) epitope; human prostanoid EP3 receptors were co-transfected with chimeric Gqi-HA; human EP1, FP, IP, and TP receptor cDNAs were expressed with no exogenous G-proteins. Gqs and Gqi chimeric cDNAs (Molecular Devices, Sunnyvale, Calif., U.S.A.), as well as cDNAs of prostanoid receptors, were cloned into a pCEP4 vector with a hygromycin B selection marker. Transfection into HEK-293 EBNA (Epstein-Barr virus nuclear antigen) cells was achieved by the FuGENE 6 transfection Reagent (Roche Applied Science, Indianapolis, Ind., USA). Stable transfectants were selected according to hygromycin resistance. Because Gqs and Gqi contained an HA epitope, G-protein expression was detected by Western blotting analysis using anti-mouse HA monoclonal antibody and horseradish peroxidase (HRP)-conjugated secondary antibody, while functional expression of prostanoid receptors was detected by FLIPR screening (Matias et al., 2004). These stable cell lines were validated using previously published antagonists at 10 μM against serial dilutions of standard agonists by FLIPR functional assays for Ca^2+ Signaling (as described below).
Ca^2+ signaling studies were performed using a FLIPR TETRA system (Molecular Devices, Sunnyvale, Calif., USA) in the 384-format. This is a high-throughput instrument for cell-based assays to monitor Ca^2+ signaling associated with GPCRs and ion channels. Cells were seeded at a density of 5×10^4 cells/well in BioCoat poly-D-lysine coated, black wall, clear bottom 384-well plates (BD Biosciences, Franklin lakes, NJ, USA) and allowed to attach overnight in an incubator at 37° C. The cells were then washed twice with HBSS-HEPES buffer (Hanks' balanced salt solution without bicarbonate and phenol red, 20 mM HEPES, pH 7.4) using an ELx405 Select CW Microplate Washer (BioTek, Winooski, Vt., USA). After 60 min of dye-loading in the dark using the Ca^2+-sensitive dye Fluo-4AM (Invitrogen, Carlsbad, Calif., USA), at a final concentration of 2×10^−6M, the plates were washed 4 times with HBSS-HEPES buffer to remove excess dye and leaving 50 μl of buffer in each well. The plates were then placed in the FLIPR TETRA instrument and allowed to equilibrate at 37° C. Compounds were added in a 25 μl volume to each well to give final concentrations of 0.1 μM, 0.3 μM, 1 μM, 3 μM, 10 μM, and 30 μM; or 0.067 μM, 0.1 μM, 0.2 μM, 0.3 μM, 0.67 μM, and 1 μM for cells over-expressing TP receptors. After 4.5 minutes, a 7-point serial dilution of the standard agonist for the corresponding receptor, in a 25 μl volume was injected at the final concentrations from 10^−11M to 10^−5M in 10-fold serial dilution increments for cells expressing human recombinant DP1, EP1, EP2, EP3, EP4, FP, and IP receptors. The dose range for the standard agonist for human recombinant TP receptors was from 10^−12M to 10^−6M. HBSS-HEPES buffer was used as the negative control for the standard agonists. Cells were excited with LED (light emitting diode) excitation at 470-495 nm and emission was measured through an emission filter at 515-575 nm. Assay plates were read for 3.5 minutes using the FLIPR^TETRA. The peak increase in fluorescence intensity was recorded for each well. On each plate, negative controls, dose response of positive controls, and co-treatments of antagonist-agonist for each dose were in triplicates. Standard agonists were as follows: DP=BW 245C, EP1-EP4=PGE2, FP=17-phenyl-PGF2α, IP=Cicaprost, and TP=U-46619. […]

[2] = target: T2, human prostanoid TP receptor (Homo sapiens, UniProt P21731); assay: FLIPR Ca2+ signaling PG antagonist assay, TP stable cell line; type: cell-based; conditions: HEK-293 EBNA cells, human recombinant TP, no exogenous G-protein; standard agonist U-46619
T2 construct: expressed in transfected cells
T2 sequence (P21731 1-343): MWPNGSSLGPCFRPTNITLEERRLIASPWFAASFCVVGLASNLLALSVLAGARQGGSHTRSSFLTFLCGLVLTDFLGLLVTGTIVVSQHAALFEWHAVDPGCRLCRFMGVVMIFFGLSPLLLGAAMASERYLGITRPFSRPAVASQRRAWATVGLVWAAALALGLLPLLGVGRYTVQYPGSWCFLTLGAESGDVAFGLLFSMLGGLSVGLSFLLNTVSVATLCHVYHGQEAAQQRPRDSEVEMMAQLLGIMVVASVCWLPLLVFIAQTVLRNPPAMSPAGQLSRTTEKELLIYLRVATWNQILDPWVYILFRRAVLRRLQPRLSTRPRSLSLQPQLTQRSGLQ
How it was run: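 HEK-293 EBNA stable lines; EP2 co-expressed with chimeric Gqs, EP1/IP/TP with no exogenous G protein. Fluo-4AM-loaded cells pretreated 4.5 min at 37 °C with compound (0.1–30 μM; TP 0.067–1 μM), then standard agonist (PGE2, cicaprost, U-46619) 10^−11–10^−5 M (TP 10^−12–10^−6 M); peak fluorescence read 3.5 min, nonlinear regression.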

| SMILES | Kb [1] | TP (Kb, PG antagonist activity) [2] | Kb [2] |
| --- | --- | --- | --- |
| O=C(O)c1cccc2c1cnn2Cc1cc(Cl)ccc1OCc1ccc(Cl)cc1 [Example 40, 1-[5-Chloro-2-(4-Chloro-Benzyloxy)-Benzyl]-1H-Indazole-4-Carboxylic Acid] | ≥ 12000 nM | Ag | – |
| CCC(CC)COc1ccc(Cl)cc1Cn1ncc2ccc(C(=O)O)cc21 [Example 6] | ≥ 10000 nM | – | 150 nM |
| CC(C)COc1ccc(OC(F)(F)F)cc1Cn1ccc2cc(C(=O)O)cnc21 [Example 74, 1-(2-Isobutoxy-5-Trifluoromethoxy-Benzyl)-1H-Pyrrolo[2,3-B]Pyridine-5-Carboxylic Acid] | 2800 nM | – | 20 nM |
| Cc1nn(Cc2cc(C(F)(F)F)ccc2OCC(C)C)c2ccc(C(=O)O)cc12 [Example 25, 1-(2-Isobutoxy-5-Trifluoromethyl-Benzyl)-3-Methyl-1H-Indazole-5-Carboxylic Acid] | 4500 nM | – | 50 nM |
| CC(C)COc1ccc(Br)cc1Cn1cnc2cc(C(=O)O)ccc21 [Example 79, 1-(5-Bromo-2-Isobutoxy-Benzyl)-1H-Benzoimidazole-5-Carboxylic Acid] | 8700 nM | – | 8 nM |
| CC(C)COc1ccc(OC(F)(F)F)cc1Cn1ncc2cc(C(=O)O)cnc21 [Example 58, 1-(2-Isobutoxy-5-Trifluoromethoxy-Benzyl)-1H-Pyrazolo[3,4-B]Pyridine-5-Carboxylic Acid] | 9800 nM | – | 70 nM |
| CC1(COc2ccc(Br)cc2Cn2ncc3cc(C(=O)O)ccc32)CC1 [Example 19] | 3600 nM | – | 50 nM |
| CCc1nn(Cc2cc(Br)ccc2OCC(CC)CC)c2ccc(C(=O)O)cc12 [Example 65, 1-[5-Bromo-2-(2-Ethyl-Butoxy)-Benzyl]-3-Ethyl-1H-Indazole-5-Carboxylic Acid] | 4700 nM | – | 52 nM |
| CC(C)COc1ccc(Br)cc1Cn1ccc2cc(C(=O)O)cnc21 [Example 72, 1-(5-Bromo-2-Isobutoxy-Benzyl)-1H-Pyrrolo[2,3-B]Pyridine-5-Carboxylic Acid] | ≥ 10000 nM | – | 3 nM |
| O=C(O)c1ccc2c(cnn2Cc2cc(Cl)ccc2OCc2ccc(Cl)cc2)c1 [Example 9, 1-[5-Chloro-2-(4-Chloro-Benzyloxy)-Benzyl]-1H-Indazole-5-Carboxylic Acid] | 4900 nM | PAgonist | – |
| CC(C)COc1ccc(Br)cc1Cn1ncc2cc(C(=O)O)ccc21 [Example 4] | 1500 nM | – | 2 nM |
| O=C(O)c1ccc2c(cnn2Cc2cc(Br)ccc2OCC2CC2)c1 [Example 15, 1-(5-Bromo-2-Cyclopropylmethoxy-Benzyl)-1H-Indazole-5-Carboxylic Acid] | 8400 nM | – | 20 nM |
| Cc1nn(Cc2cc(Br)ccc2OCC2(C)CC2)c2ccc(C(=O)O)cc12 [Example 28, 1-[5-Bromo-2-(1-Methyl-Cyclopropylmethoxy)-Benzyl]-3-Methyl-1H-Indazole-5-Carboxylic Acid] | 2220 nM | – | 7 nM |
| CC(C)COc1ccc(Cl)cc1Cn1ncc2cc(C(=O)O)cnc21 [Example 57, 1-(5-Chloro-2-Isobutoxy-Benzyl)-1H-Pyrazolo[3,4-B]Pyridine-5-Carboxylic Acid] | ≥ 10000 nM | – | 150 nM |
| CC(C)COc1ccc(OC(F)(F)F)cc1Cn1ncc2cc(C(=O)O)ccc21 [Example 20, 1-(2-Isobutoxy-5-Trifluoromethoxy-Benzyl)-1H-Indazole-5-Carboxylic Acid] | ≥ 10000 nM | – | 50 nM |
| O=C(O)c1ccc2c(cnn2Cc2cc(C(F)(F)F)ccc2OCc2ccc(Cl)cc2)c1 [Example 32, 1-[2-(4-Chloro-Benzyloxy)-5-Trifluoromethyl-Benzyl]-1H-Indazole-5-Carboxylic Acid] | ≥ 10000 nM | – | 50 nM |
| CC(C)(O)COc1ccc(Br)cc1Cn1ncc2cc(C(=O)O)ccc21 [Example 53, 1-[5-Bromo-2-(2-Hydroxy-2-Methyl-Propoxy)-Benzyl]-1H-Indazole-5-Carboxylic Acid] | ≥ 10000 nM | – | 1200 nM |
| O=C(O)c1cccc2nn(Cc3cc(Cl)ccc3OCc3ccc(Cl)cc3)cc12 [Example 41, 2-[5-Chloro-2-(4-Chloro-Benzyloxy)-Benzyl]-2H-Indazole-4-Carboxylic Acid] | ≥ 10000 nM | – | 7400 nM |
| O=C(O)c1ccc2cn(Cc3cc(Br)ccc3OCC3CCCC3)nc2c1 [Example 45, 2-(5-Bromo-2-Cyclopentylmethoxy-Benzyl)-2H-Indazole-6-Carboxylic Acid] | ≥ 10000 nM | – | 80 nM |
| CC(C)COc1ccc(Cl)cc1Cn1cc2cc(C(=O)O)ccc2n1 [Example 16, 2-(5-Chloro-2-Isobutoxy-Benzyl)-2H-Indazole-5-Carboxylic Acid] | 4000 nM | – | 400 nM |
| CC(C)(C)COc1ccc(Br)cc1Cn1ncc2cc(C(=O)O)ccc21 [Example 52, 1-[5-Bromo-2-(2,2-Dimethyl-Propoxy)-Benzyl]-1H-Indazole-5-Carboxylic Acid] | 2100 nM | – | 2 nM |
| CCC(CC)COc1ccc(Br)cc1Cn1ccc2cc(C(=O)O)ccc21 [Example 69, 1-[5-Bromo-2-(2-Ethyl-Butoxy)-Benzyl]-1H-Indole-5-Carboxylic Acid] | 7900 nM | – | 550 nM |

Reference: patent publication US10988474B2, “Compounds acting at multiple prostaglandin receptors giving a general anti-inflammatory response” (ALLERGAN, INC., priority 2011, dated 2021)
